Data as given in US20190374509A1, “Methods of Using Metamizole for Treatment of Pyrexia in Equines” (Kindred Biosciences, Inc., priority 2018, published 2019).
Several values for one entry are separate records, joined by “and”; a condition that tells them apart may be missing. Equal entries are not always repeated.

Experiments:
horses [1] = experiment: Margin of safety study, IV three times daily for 9 days: coagulation panel (prothrombin time, APTT, fibrinogen); assay type: in vivo; conditions: for Prothrombin Time LS Means: averaged over time and sex
Protocol: (§1) A study was conducted to evaluate the margin of safety of metamizole when administered intravenously to horses for 9 days at doses of 0 mg/kg (0×), 30 mg/kg (1×), 60 mg/kg (2×), and 90 mg/kg (3×) of body weight three times daily (TID), every 8 hours±30 min.
This was a prospective, blinded, randomized, placebo-controlled, parallel-group laboratory study in research horses. Thirty-two horses were enrolled in the study (Table 1).
(§2) Treatment phase involved administration of the investigational drug or placebo. The investigational drug was a sterile injectable formulation of dipyrone (Zimeta™, Corden Pharma, Caponago, Italy) (500 mg/mL) in 100 mL glass bottles. The placebo was sterile injectable saline (Nova-Tech Inc, Grand Island, NE) (0.9% sodium chloride) in 500 mL plastic bottles labeled for veterinary use. Dipyrone treatment groups were 30 mg/kg (1×), 60 mg/kg (2×), and 90 mg/kg (3×). Placebo treatment group was saline administered at a volume to match the 3× dipyrone group (0×). The dose was calculated based on body weight and administered three times daily for nine consecutive days. Due to the large volume of injection at the higher dose groups, treatment was administered via indwelling intravenous (IV) catheters. Intravenous catheters were placed using standard techniques. Horses were sedated with xylazine (AnaSed® LA, VetOne, MWI, Boise, Id.) and the skin was desensitized with subcutaneous injection of lidocaine (VetOne, MWI, Boise, Id.). Intravenous catheters were replaced at the discretion of the study director and were maintained with heparinized saline flush prior to and following dose administration.
(§3) Randomization occurred on Study Day −1. […] .
For continuous endpoints with repeated post-treatment measurements (serum chemistry, coagulation, hematology, urinalysis, body weight, body temperature, heart rate and respiratory rate), repeated measurement analysis of covariance (SAS MIXED procedure RMANCOVA) was used to evaluate a model including treatment, time, sex, treatment by sex interaction, treatment by time interaction, and treatment by time by sex three-way interaction as fixed effects. In addition, baseline values were included as a covariate and remained in the model regardless of its significance. Baseline values were defined as the values prior to and nearest to the first dosing. The covariance structures for repeated measures analysis of covariance (RMANCOVA) were selected from compound symmetry (CS) and compound symmetry heterogeneous variances (CSH), since only two post baseline measurements were collected in this study. The Kenward-Roger approximation was used to calculate denominator degrees of freedom for statistical tests. The minimum Akaike Information Criterion was used to select the covariance structure.
In Table 6 below the percent of samples in each treatment group that were above the upper reference range limit of 12 seconds is listed for Days 4 and 8.

horses [2] = experiment: Margin of safety study, IV three times daily for 9 days: necropsy, organ weights, histopathology; assay type: in vivo; conditions: for Liver (absolute weight) LS Means / Liver (relative to body weight) LS Means: necropsy
Protocol: as §1, §2, §3
For continuous endpoints with single post-treatment measures (organ weight and organ weight relative to body weight), analysis of variance (ANOVA) was used to evaluate a model including treatment, sex, and treatment by sex interaction as fixed effects. If treatment by sex interaction was significant, within sex pair-wise comparison of each treatment group versus placebo using linear contrasts were performed. If treatment by sex interaction was not significant and treatment effect was significant, pair-wise comparison of each treatment group versus placebo for pooled sex were performed. In particular, sex specific organ weights (ovaries) were analyzed by ANOVA including only treatment as a fixed effect.

horses [3] = experiment: Pyrexia efficacy Study 1 (unmasked, single IV dose, rectal temperature); assay type: in vivo; conditions: 30 mg/kg IV single dose; for Mean (± SD) temperature change from baseline: horses with rectal temperature ≥102.0° F.
Protocol: Study 1: The unmasked laboratory study was conducted at a clinical research organization in the United States. Institutional Animal Care and Use Committee (IACUC) approval was obtained prior to the conduct of the study. Horses one year of age or older were comingled by the Investigator in order to facilitate transmission of respiratory infections. Horses were monitored by the study staff for elevation of rectal temperature. All horses received treatment once the rectal temperature was ≥102.0° F. A single dose of dipyrone was administered intravenously (30 mg/kg IV). Rectal temperature was monitored 1, 2, 3, and 6 hours post-treatment administration.
In both studies horses were assessed daily to determine overall safety. Medications that could have impacted the temperature or the underlying cause of the disease were not permitted in either study; however, horses in both studies were eligible for rescue at the discretion of the Investigator. Following completion of the study, the Investigator treated the horses with standard of care for the type, and severity, of clinical signs. Statistical analysis was performed with the Wilcoxon rank sum test (SAS®, SAS Institute, Cary N.C., version 9.4).

horses [4] = experiment: Margin of safety study: lung bacterial culture at necropsy
[5] = 1X, 30 mg/kg IV every 8 hours, Day 4
[6] = 1X, 30 mg/kg IV every 8 hours, Day 8
[7] = 2X, 60 mg/kg IV every 8 hours, Day 4
[8] = 2X, 60 mg/kg IV every 8 hours, Day 8
[9] = 3X, 90 mg/kg IV every 8 hours, Day 4
[10] = 3X, 90 mg/kg IV every 8 hours, Day 8
[11] = 3X, 90 mg/kg IV every 8 hours, Day 8, only 7 samples
[12] = 30, 60, 90 mg/kg IV every 8 hours for 9 days vs placebo

Cc1c(N(C)CS(=O)(=O)O)c(=O)n(-c2ccccc2)n1C [dipyrone, [(2,3-dihydro-1,5-dimethyl-3-oxo-2-phenyl-1H-pyrazol-4-yl)methylamino] methanesulfonic acid]
Percent of samples with PT >12 sec (horses [1]; [5]): 100% | Percent of samples with PT >14 sec (horses [1]; [5]): 25% | Prothrombin Time Day 4 Range (horses [1]; [5]): 12.6 to 14.6 s | Range of PT values >14 sec (horses [1]; [5]): 14.1 to 14.6 s | Percent of samples with PT >12 sec (horses [1]; [6]): 100% | Percent of samples with PT >14 sec (horses [1]; [6]): 13% | Prothrombin Time Day 8 Range (horses [1]; [6]): 12.3 to 15.2 s | Range of PT values >14 sec (horses [1]; [6]): (15.2) sec | Prothrombin Time LS Means (horses [1]; 1X, 30 mg/kg IV every 8 hours): 13.374 s and 13.374 ± 0.4062 s | Percent of samples with PT >12 sec (horses [1]; [7]): 100% | Percent of samples with PT >14 sec (horses [1]; [7]): 13% | Prothrombin Time Day 4 Range (horses [1]; [7]): 12.7 to 15.8 s | Range of PT values >14 sec (horses [1]; [7]): 15.8 s | Percent of samples with PT >12 sec (horses [1]; [8]): 100% | Percent of samples with PT >14 sec (horses [1]; [8]): 50% | Prolongation of PT observed, number of horses (horses [1]; [8]): 1 | Prothrombin Time Day 8 Range (horses [1]; [8]): 12.8 to 21.6 s | Range of PT values >14 sec (horses [1]; [8]): (14.7-21.6) sec | Prothrombin Time LS Means (horses [1]; 2X, 60 mg/kg IV every 8 hours): 14.524 s and 14.524 ± 0.4064 s | Percent of samples with PT >12 sec (horses [1]; [9]): 100% | Percent of samples with PT >14 sec (horses [1]; [9]): 75% | Prothrombin Time Day 4 Range (horses [1]; [9]): 13.4 to 15.9 s | Range of PT values >14 sec (horses [1]; [9]): 14.6 to 15.9 s | Prolongation of PT observed, number of horses (horses [1]; [10]): 1 | Prothrombin Time Day 8 Range (horses [1]; [10]): 12.7 to 21.9 s | Range of PT values >14 sec (horses [1]; [10]): (14.3-21.9) sec | Percent of samples with PT >12 sec (horses [1]; [11]): 100%^4 | Percent of samples with PT >14 sec (horses [1]; [11]): 71%^4 | Prothrombin Time LS Means (horses [1]; 3X, 90 mg/kg IV every 8 hours): 14.946 s and 14.946 ± 0.4396 s | Activated partial thromboplastin time (APTT) or fibrinogen (horses [1]; [12]): no statistically significant differences | Effect on prothrombin time (PT) (horses [1]; [12]): statistically significant main treatment effect of prolongation of prothrombin time (PT) | Liver (absolute weight) LS Means (horses [2]; 1X, 30 mg/kg IV every 8 hours): 6280.00 g | Liver (relative to body weight) LS Means (horses [2]; 1X, 30 mg/kg IV every 8 hours): 13.69 | Liver (absolute weight) LS Means (horses [2]; 2X, 60 mg/kg IV every 8 hours): 6892.50 g | Liver (relative to body weight) LS Means (horses [2]; 2X, 60 mg/kg IV every 8 hours): 15.28 | Liver (absolute weight) LS Means (horses [2]; 3X, 90 mg/kg IV every 8 hours): 7765.21 g | Liver (relative to body weight) LS Means (horses [2]; 3X, 90 mg/kg IV every 8 hours): 16.38 | Effect on absolute and relative liver weights (horses [2]; [12]): statistically significant increase in absolute and relative liver weights | Renal, hepatic and gastrointestinal gross necropsy and histopathology evaluation (horses [2]; up to 90 mg/kg IV every 8 hours for 9 days): no significant findings | Mean (± SD) temperature change from baseline (horses [3]; Hour 1): −1.1 (± 0.5) ° F. | Mean (± SD) temperature change from baseline (horses [3]; Hour 2): −1.4 (± 1.0) ° F. | Mean (± SD) temperature change from baseline (horses [3]; Hour 3): −1.9 (± 1.0) ° F. | Mean (± SD) temperature change from baseline (horses [3]; Hour 6): −1.9 (± 1.1) ° F. | Fever reduction post-dose (horses [3]; Hours 1, 2, 3, 6): significantly reduced fever at all measured timepoints post-dose | Horses with reduced fever (>1° F.) (horses [3]; eight horses, Hour 6): 87.5% | Horses with return to normothermia (≥2° F.) (horses [3]; eight horses, Hour 6): 75% | S. aureus cultured at necropsy, number positive horses (horses [4]; 1X, 30 mg/kg IV every 8 hours): 1 | Acinetobacter sp. cultured at necropsy, number positive horses (horses [4]; 2X, 60 mg/kg IV every 8 hours): 2X (n = 1) | Aeromonas sp. cultured at necropsy, number positive horses (horses [4]; 2X, 60 mg/kg IV every 8 hours): 2X (n = 1) | Pantoea sp. cultured at necropsy, number positive horses (horses [4]; 2X, 60 mg/kg IV every 8 hours): 2X (n = 1) | Pseudomonas sp. cultured at necropsy, number positive horses (horses [4]; 2X, 60 mg/kg IV every 8 hours): 2X (n = 1) | S. aureus cultured at necropsy, number positive horses (horses [4]; 2X, 60 mg/kg IV every 8 hours): 2 | S. dysgalactiae subsp. equisimilis cultured at necropsy, number positive horses (horses [4]; 2X, 60 mg/kg IV every 8 hours): 2X (n = 1) | S. equi subsp. zooepidemicus cultured at necropsy, number positive horses (horses [4]; 2X, 60 mg/kg IV every 8 hours): 0X (n = 2), 2X (n = 1), 3X (n = 1) | S. aureus cultured at necropsy, number positive horses (horses [4]; 3X, 90 mg/kg IV every 8 hours): 2 | S. equi subsp. zooepidemicus cultured at necropsy, number positive horses (horses [4]; 3X, 90 mg/kg IV every 8 hours): 0X (n = 2), 2X (n = 1), 3X (n = 1)
